Assay results reported in PMC4273980 (ACS Chemical Biology, 2014).
“Also recorded” adds a separate entry of the source.

Each compound was assayed against T1, hP2Y14R (Homo sapiens, UniProt Q15391) (assay: Antagonism of 2). Settings: not given.
T1 sequence (Q15391 1-338): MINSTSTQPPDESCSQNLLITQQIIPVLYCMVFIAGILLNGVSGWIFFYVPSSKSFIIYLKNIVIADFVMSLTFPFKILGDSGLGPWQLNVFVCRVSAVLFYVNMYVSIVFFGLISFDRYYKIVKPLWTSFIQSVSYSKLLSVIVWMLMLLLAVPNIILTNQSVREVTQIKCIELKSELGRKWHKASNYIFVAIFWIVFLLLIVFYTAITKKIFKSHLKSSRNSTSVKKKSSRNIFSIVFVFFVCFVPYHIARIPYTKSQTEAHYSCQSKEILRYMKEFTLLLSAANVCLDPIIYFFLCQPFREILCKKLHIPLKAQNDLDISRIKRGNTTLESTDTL
Assay type: cell-based
Work on `CCOC(=O)c1cc(-c2ccc(C3CCNCC3)cc2)c2ccc(-c3ccc(C(F)(F)F)cc3)cc2c1` [compound 19] yielded a Ki of 120 ± 8 nM. `C#CCCN1CCC(c2ccc(-c3cc(C(=O)O)cc4cc(-c5ccc(C(F)(F)F)cc5)ccc34)cc2)CC1` [compound 20] showed a Ki of 2.7 ± 1.2 nM. In the case of `C#CCCCCN1CCC(c2ccc(-c3cc(C(=O)O)cc4cc(-c5ccc(C(F)(F)F)cc5)ccc34)cc2)CC1` [compound 22], the Ki is reported as 13 ± 1.1 nM. For `C=C1CCC[N+]12CCC(c1ccc(-c3cc(C(=O)[O-])cc4cc(-c5ccc(C(F)(F)F)cc5)ccc34)cc1)CC2` (centres unmarked) [compound 23], the Ki was 2 ± 0.2 nM. `C#CCCC(=O)N1CCC(c2ccc(-c3cc(C(=O)O)cc4cc(-c5ccc(C(F)(F)F)cc5)ccc34)cc2)CC1` [compound 24] gave a Ki of 6.7 ± 2.2 nM. Work on `C#CCCCCC(=O)N1CCC(c2ccc(-c3cc(C(=O)O)cc4cc(-c5ccc(C(F)(F)F)cc5)ccc34)cc2)CC1` [compound 25] yielded a Ki of 8.3 ± 1.9 nM. Work on `CC(C)(C)OC(=O)NCCCN1CCC(c2ccc(-c3cc(C(=O)O)cc4cc(-c5ccc(C(F)(F)F)cc5)ccc34)cc2)CC1` [compound 26] yielded a Ki of 26 ± 6 nM. For `NCCCN1CCC(c2ccc(-c3cc(C(=O)O)cc4cc(-c5ccc(C(F)(F)F)cc5)ccc34)cc2)CC1` [compound 27], the Ki was 14 ± 2.4 nM. `O=C(CCCCCNC(=O)COc1ccc(/C=C/C2=CC3=Cc4ccc(-c5cccs5)n4[B-](F)(F)[N+]3=C2)cc1)NCCCn1cc(CCCCN2CCC(c3ccc(-c4cc(C(=O)O)cc5cc(-c6ccc(C(F)(F)F)cc6)ccc45)cc3)CC2)nn1` [compound 32] was tested, and the Ki was > 100 nM.

Same assay, conditions: P2Y14R-CHO cells
`O=C(CCCCCNC(=O)COc1ccc(/C=C/C2=CC3=Cc4ccc(-c5cccs5)n4[B-](F)(F)[N+]3=C2)cc1)NCCCn1cc(CCCCN2CCC(c3ccc(-c4cc(C(=O)O)cc5cc(-c6ccc(C(F)(F)F)cc6)ccc45)cc3)CC2)nn1` [compound 32] was tested, and the “antagonist potency / affinity at P2Y14R, in words” value was “much weaker; also recorded: low affinity”.

Same assay, conditions: relative to 6
With `CCOC(=O)c1cc(-c2ccc(C3CCNCC3)cc2)c2ccc(-c3ccc(C(F)(F)F)cc3)cc2c1` [compound 19] the “fold weaker as an antagonist than free carboxylate analogue 6” value was 400 fold.

What follows are compounds tested against T2, P2Y14R (Homo sapiens, UniProt Q15391) (assay: Flow cytometry). Settings: 10 μM competing ligand, 30 min preincubation; 10 nM 30.
T2 sequence (Q15391 1-338): T1 sequence (Q15391 1-338)
With `O=c1ccn([C@@H]2O[C@H](COP(=O)(O)OP(=O)(O)O)[C@@H](O)[C@H]2O)c(=O)[nH]1` [compound 1, uridine-5′-diphosphate] the “effect of competing ligand on labeling of P2Y14R-CHO cells by 30, in words” value (from here on “effect of competing ligand”) was “largely prevented the labeling”. With `O=C(O)c1cc(-c2ccc(C3CCNCC3)cc2)c2ccc(-c3ccc(C(F)(F)F)cc3)cc2c1` [compound 6, 4-(4-(piperidin-4-yl)-phenyl)-7-(4-(trifluoromethyl)-phenyl)-2-naphthoic acid] the “effect of competing ligand” value was “largely prevented the labeling”. With `O=C(O)[C@H]1O[C@H](OP(=O)(O)OP(=O)(O)OC[C@H]2O[C@@H](n3ccc(=O)[nH]c3=O)[C@H](O)[C@@H]2O)[C@H](O)[C@@H](O)[C@@H]1O` [compound 36, uridine-5′-diphosphoglucuronic acid] the “effect of competing ligand” value was “largely prevented the labeling”. `CNc1ncnc2c1ncn2[C@H]1C[C@H](OP(=O)(O)O)[C@@H](COP(=O)(O)O)O1` [compound 37] was tested, and the “effect of competing ligand” value was “failed at 10 μM to prevent binding of 30”. `S=C=Nc1cccc(NC(=S)NCCCCNC(=S)Nc2cccc(N=C=S)c2)c1` [compound 38] was tested, and the “effect of competing ligand” value was “failed at 10 μM to prevent binding of 30”. For `Cc1ccc(C(=O)Nc2ccc(S(=O)(=O)O)c3cc(S(=O)(=O)O)cc(S(=O)(=O)O)c23)cc1NC(=O)c1cccc(NC(=O)Nc2cccc(C(=O)Nc3cc(C(=O)Nc4ccc(S(=O)(=O)O)c5cc(S(=O)(=O)O)cc(S(=O)(=O)O)c45)ccc3C)c2)c1` [suramin], the “effect of competing ligand” value was “only a minor reduction”.
